Experimental findings from patent US4769384A, “Benzimidazole derivatives” (Nippon Shinyaku Co. Ltd., priority 1985, dated 1988) are described below.

Common to all, as to format: in vivo
Series [1] is described as follows: Anti-ulcer action: water-immersion stress ulcer in rats, oral (ulcer index). To be noted: per os. The protocol:
Biological test method: Male rats of seven weeks of age were fasted for 24 hours and subjected to the test. The compound to be tested was suspended in a physiological saline solution containing 0.5% methylcellulose therein. 10 ml/kg of it was administered orally. The animals were immediately placed in a stress cage and immersed in a water bath of 23° C. to the depth of xiphoid. After 17 hours, they were sacrificed by cervical dislocation. The stomach was isolated therefrom. 7 ml of 2% formaline solution was introduced into the stomach for fixation. Then the stomach was cut along a greater curvature. The length of ulcer produced in fundus was measured under a microscope and the total ulcer length (in mm) was defined as an ulcer index per rat. Significance between mean ulcer indices was verified by the Student t-test.

Series [2] is described as follows: Acute toxicity, oral, mice. The following applies: p.o., two weeks. The protocol: (§1) Method: Male mice of six weeks of age or male rats of six weeks of age were fasted for 24 hours and subjected to the test.
(§2) The compound to be tested was suspended in physiological saline solution containing 0.5% of methylcellulose. The suspension was administered orally.

A short description of series [3]: Acute toxicity, oral, rats. The following applies: p.o., two weeks. The protocol: as §1, §2
Where [4] appears, read: 5 mg/kg (# dose of salt as the corresponding base), 5 mg/kg.
The mark [5] stands for this setting: 10 mg/kg (# dose of salt as the corresponding base), 10 mg/kg.
The mark [6] stands for this setting: 20 mg/kg (# dose of salt as the corresponding base), 20 mg/kg.
Setting [7] is: 20 mg/kg (# dose of salt as the corresponding base).
[8] abbreviates: 40 mg/kg (# dose of salt as the corresponding base).
Where [9] appears, read: 80 mg/kg (# dose of salt as the corresponding base).
The mark [10] stands for this setting: 5 mg/kg (# dose of salt as the corresponding base).
The mark [11] stands for this setting: 10 mg/kg (# dose of salt as the corresponding base).

For the molecule `CN/C(=N/CCSCc1nc[nH]c1C)NC#N` [Cimetidine, reference compound], the “Antiulcer Action (inhibition %) after 17 hours” value (“Antiulcer Action (inhibition %)” for short) in series [1] (200 mg/kg) worked out at 66%.

On to `COC(=O)c1cccc2nc(/C=C/c3ccc(OC)c(OC)c3)[nH]c12` [Example 65, Methyl (E)-2-(3,4-dimethoxystyryl)benzimidazole-4-carboxylate d-10-camphorsulfonate], for which the “Antiulcer Action (inhibition %)” value amounted to 12% in series [1] (setting [4]), 69% in series [1] (setting [5]) and 89% in series [1] (setting [6]). The “Death Ratio” value in series [2] (3440 mg/kg) is listed as 2/5.

For the molecule `COC(=O)c1cccc2nc(/C=C/c3ccc(OC)cc3)[nH]c12` [Example 14, Methyl (E)-2-(4-methoxystyryl)benzimidazole-4-carboxylate], the “Antiulcer Action (inhibition %)” value in series [1] (20 mg/kg) is 26%; in series [1] (40 mg/kg) it was 81%; in series [1] (80 mg/kg), 96%. Further, the “Death Ratio” value in series [3] (2000 mg/kg) is listed as 0/4.

Take `C#CCOc1ccc(/C=C/c2nc3c(C(=O)OC)cccc3[nH]2)cc1` [Example 30, Methyl (E)-2-[4-(2-propynyloxy)styryl]benzimidazole-4-carboxylate phosphate]: the “Antiulcer Action (inhibition %)” value in series [1] (setting [7]) is recorded as 44%; in series [1] (setting [8]) it was 55%; in series [1] (setting [9]), 82%.

As to `COC(=O)c1cccc2nc(/C=C/c3ccc(OC)cc3)[nH]c12.O=P(O)(O)O` [Example 54, Methyl (E)-2-(4-methoxystyryl)benzimidazole-4-carboxylate phosphate], the “Antiulcer Action (inhibition %)” value was determined as 55% in series [1] (setting [7]), 86% in series [1] (setting [8]) and 98% in series [1] (setting [9]). In series [3] (2636 mg/kg), the “Death Ratio” value is on record as 0/4.

Take `COC(=O)c1cccc2nc(/C=C/c3ccc(OC)c(OC)c3)[nH]c12` [Example 1, Methyl (E)-2-(3,4-dimethoxystyryl)benzimidazole-4-carboxylate]: the entries for the “Antiulcer Action (inhibition %)” value in series [1] (10 mg/kg), in series [1] (20 mg/kg) and in series [1] (40 mg/kg) were 40%, 78% and 97%, respectively. Also, the “Death Ratio” value is given as 0/5 in series [2] (2000 mg/kg) and 1/4 in series [3] (2000 mg/kg).

For the molecule `COC(=O)c1cccc2nc(/C=C/c3ccc(OC)c(OC)c3)[nH]c12.Cl` [Example 70, Methyl (E)-2-(3,4-dimethoxystyryl)benzimidazole-4-carboxylate hydrochloride], the “Antiulcer Action (inhibition %)” value in series [1] (setting [10]) was 3%; in series [1] (setting [11]), 72%; in series [1] (setting [7]), 80%. Further, the “Death Ratio” value in series [2] (2340 mg/kg) is recorded as 1/5.

For the molecule `COC(=O)c1cccc2nc(/C=C/c3ccc(OC)c(OC)c3)[nH]c12.O=S(=O)(O)O` [Example 67, Methyl (E)-2-(3,4-dimethoxystyryl)benzimidazole-4-carboxylate sulfate], the “Antiulcer Action (inhibition %)” value in series [1] (setting [10]) amounted to 48%; in series [1] (setting [11]), 72%.

On to `COC(=O)c1cccc2nc(/C=C/c3ccc(OC)c(OC)c3)[nH]c12` [1 (phosphate), Methyl (E)-2-(3,4-dimethoxystyryl)benzimidazole-4-carboxylate], for which the “Antiulcer Action (inhibition %)” value in series [1] (setting [11]) was found to be 66%; in series [1] (setting [7]), 92%. Moreover, the entries for the “Death Ratio” value in series [2] (2580 mg/kg) and in series [3] (2580 mg/kg) were 0/3 and 0/4, respectively.

For `COC(=O)c1cccc2nc(/C=C/c3ccc(OC)c(OC)c3)[nH]c12.O=S(=O)(O)c1ccccc1` [Example 86, Methyl (E)-2-(3,4-dimethoxystyryl)benzimidazole-4-carboxylate benzenesulfonate], the results for the “Antiulcer Action (inhibition %)” value in series [1] (setting [10]), in series [1] (setting [11]) and in series [1] (setting [7]) were 4%, 35% and 98%, respectively. Further, the “Death Ratio” value in series [3] (2280 mg/kg) is 0/3.

As for `Br.COC(=O)c1cccc2nc(/C=C/c3ccc(OC)c(OC)c3)[nH]c12` [Example 69, Methyl (E)-2-(3,4-dimethoxystyryl)benzimidazole-4-carboxylate hydrobromide], the results for the “Antiulcer Action (inhibition %)” value in series [1] (setting [10]) and in series [1] (setting [11]) were 38% and 82%, respectively. Besides, the “Death Ratio” value in series [2] (2560 mg/kg) is listed as 2/5.

As to `COC(=O)c1cccc2[nH]c(/C=C/c3ccc(OC)c(OC)c3)nc12` [Example 66, Methyl (E)-2-(3,4-dimethoxystyryl)benzimidazole-4-carboxylate 1-naphthalenesulfonate], the “Antiulcer Action (inhibition %)” value is 7% in series [1] (setting [4]), 63% in series [1] (setting [5]) and 87% in series [1] (setting [6]).

`CCOc1ccc(/C=C/c2nc3cccc(C(=O)OC)c3[nH]2)cc1OC.O=P(O)(O)O` [Example 53, Methyl (E)-2-(4-ethoxy-3-methoxystyryl)benzimidazole-4-carboxylate phosphate]: the results for the “Antiulcer Action (inhibition %)” value in series [1] (setting [7]), in series [1] (setting [8]) and in series [1] (setting [9]) were 81%, 99% and 99%, respectively.
